In PMC3590912 (Journal of medicinal chemistry, 2012):

Assays:
[1] = In vitro metabolic stability in hepatic microsomes with NADPH; details: for in vitro metabolic stability (in words): hepatic microsomes with NADPH, compared with 1
mice = assay: Urearetic activity: urine osmolality in mice under dDAVP stimulation; assay type: in vivo, mouse; details: 400 μg intraperitoneal, dDAVP 1 h later, versus formulation alone
[2] = Pharmacokinetics and renal accumulation in mice; details: intraperitoneal bolus 400 μg, for many hours

| Compound | in vitro metabolic stability (in words) [1] | reduction of urine osmolality (mice) | improvement of in vitro metabolic stability compared to 1 [1] | 3k concentration in blood, kidney and urine [2] [µM] |
| --- | --- | --- | --- | --- |
| O=S(=O)(c1ccc(C(F)(F)F)cc1)c1nnn2c1nc(NCc1cccs1)c1sccc12 [3c, Thiophen-2-ylmethyl-[3-(4-trifluoromethylbenzenesulfonyl)thieno[2,3-e][1,2,3]triazolo[1,5-a]pyrimidin-5-yl]amine] | improved metabolic stability | – | – | – |
| O=S(=O)(c1ccc(OC(F)(F)F)cc1)c1nnn2c1nc(NCc1cccs1)c1sccc12 [3d, Thiophen-2-ylmethyl-[3-(4-trifluoromethoxybenzenesulfonyl)thieno[2,3-e][1,2,3]triazolo-[1,5-a]pyrimidin-5-yl]amine] | improved metabolic stability | – | – | – |
| O=S(=O)(c1ccc(Br)cc1)c1nnn2c1nc(NCc1cccs1)c1sccc12 [3i, [3-(4-Bromobenzenesulfonyl)thieno[2,3-e][1,2,3]triazolo-[1,5-a]pyrimidin-5-yl]thiophen-2-ylmethylamine] | improved metabolic stability | – | – | – |
| CC(F)(F)c1ccc(S(=O)(=O)c2nnn3c2nc(NCc2cccs2)c2sccc23)cc1 [3k, [3-[4-(1,1-Difluoroethyl)benzenesulfonyl]thieno[2,3-e]-[1,2,3]triazolo[1,5-a]pyrimidin-5-yl]thiophen-2-ylmethylamine] | – | ~ 0.5 Osm/kg H2O | ~ 40 fold | > 1 |
